In data set [1] the test system is Leishmania donovani. Put plainly: Antileishmanial activity against Leishmania donovani Ld1s intracellular amasitgote infected in J774 cells incubated for 72 hrs by non-radioactive cell proliferation assay. The class given is functional, organism-based. Particulars: J774, 72 h.
In data set [2] the test system is J774. As to the kind of experiment: Cytotoxicity against mouse J774 cells assessed as reduction in cell viability incubated for 72 hrs by MTT assay. In kind it is cell-based. Particulars: J774, 72 h. (Formazan colour is commonly taken as a measure of viable cells.)
Data set [3] can be described thus: Selectivity index, ratio of IC for mouse J774 cells to IC50 for Leishmania donovani Ld1s promastigotes. The class given is toxicity. Conditions: J774 cells versus Leishmania donovani Ld1s promastigotes, read-out: Ratio IC50.
The subject of data set [4] is Leishmania donovani. As to the kind of experiment: Antileishmanial activity against Leishmania donovani LV82 amastigotes infected in mouse peritoneal microphage incubated for 72 hrs by DAPI staining based assay. Particulars: LV82, 72 h. The class given is functional, organism-based.
Data set [5] is described as follows: Binding affinity to 5'-dCCAAAATTTTG CTCT CAAAATTTTGG-3' DNA (unknown origin) assessed as change in melting temperature at 2:1 ligand and DNA by specrophotometry.
Data set [6] in a line: Binding affinity to 5'-dCCAAAAGTTTTG CTCT CAAAACTTTTGG-3' DNA (unknown origin) assessed as change in melting temperature at 2:1 ligand and DNA by specrophotometry.
Data set [7] in a line: Binding affinity to 5'-dCCAAAATTTTG CTCT CAAAATTTTGG-3' DNA (unknown origin) assessed as DNA intercalation incubated for 5 mins by circular dichroism method. On the technique in general: CD spectra are sensitive to the conformation of chiral molecules.
Data set [8] deals with Leishmania donovani. As to the kind of experiment: Antileishmanial activity against Leishmania donovani LV82 intracellular amastigotes infected in murine peritoneal macrophage incubated for […] by beta-lactamase reporter gene based spectrophotometry. In kind it is functional, organism-based. A general note: In a reporter assay the amount or activity of a reporter protein is the signal.

Data set [9] in a line: Selectivity index, ratio of IC50 for mouse peritoneal macrophages to IC50 for Leishmania donovani LV82 intracellular amastigotes. Conditions: read-out: Ratio IC50. The class given is toxicity, cell-based.
In data set [10] the test system is Leishmania donovani. Put plainly: Antileishmanial activity against Leishmania donovani LV82 promastigotes infected in BALB/c mouse assessed as reduction in liver parasitemia at 1.2 mg/kg, ip administered for 5 days by Geimsa staining based assay relative to control. The class given is functional. More on the design: scale not given: the % may be the effect or the level left.

Molecules are shown by their SMILES. The source made the active and inactive calls. The rule behind the calls is not given here.

With `CN1/C(=C/c2cc[n+](C)c3c(-c4ccccc4)cccc23)Sc2ccccc21`, the half-inhibitory concentration (IC50) (commonly the concentration that gives 50% inhibition) in [1] was 0.024 µM; in data set [2], 0.2 µM. Also, the selectivity ratio in data set [3] worked out at 8.3.

Turning to `CN1/C(=C/c2cc[n+](C)c3ccccc23)Sc2ccccc21` [listing 1 of 2 here], the values for the 50% inhibitory concentration (IC50) in data set [1] and in data set [2] were 0.014 µM and 0.19 µM, respectively. In [3], the selectivity ratio is 14.

With `CN1/C(=C/c2cccc[n+]2C)Sc2ccccc21`, the IC50 in data set [1] was 0.29 µM; in data set [2] it was 2.5 µM; in data set [4] it was 1.7 µM. The selectivity ratio in data set [3] amounted to 8.6. The ΔTm in data set [5] and in [6] was less than 1 °C throughout.

As for `CN1/C(=C/c2cc[n+](C)c3ccc(Cl)cc23)Sc2ccccc21`, the IC50 in data set [1] worked out at 0.031 µM; in data set [2], 0.31 µM. In addition, the selectivity ratio in [3] was found to be 10.

With `COc1cccc2c(/C=C3\Sc4ccccc4N3C)cc[n+](C)c12`, the concentration for half-maximal inhibition (IC50) in [1] turned out to be 0.03 µM; in data set [2], 0.059 µM. Besides, the selectivity ratio in [3] stood at 2.

In the case of `Cc1cccc2c(/C=C3\Sc4ccccc4N3C)cc[n+](C)c12`, the IC50 in [1] amounted to 0.03 µM; in [2], 0.12 µM. For the same compound, in data set [3], the selectivity ratio came out at 4. Further, the thermal shift (ΔTm) (as a rule, the change in melting temperature against a reference sample) in data set [5] came out at 4 °C; in data set [6], 3 °C.

Turning to `Cc1cccc2c1c(/C=C1\Sc3ccccc3N1C)cc[n+]2C`, the half-maximal inhibitory concentration (IC50) in data set [1] was found to be 0.024 µM; in [2], 0.12 µM. Also, in data set [3], the selectivity ratio came to 5. For the same compound, the ΔTm in data set [5] came out at 3 °C; in [6] it was 4 °C.

On to `CN1/C(=C/c2cc[n+](C)c3ccccc23)Sc2ccccc21` [listing 2 of 2 here], for which the ΔTm in data set [5] and in data set [6] was 4 °C each time.

`COc1cc([C@@H]2c3cc4c(cc3[C@H](O)[C@H]3COC(=O)[C@H]23)OCO4)cc(OC)c1OC` [PODOFILOX]: in data set [2], the IC50 came out at 0.023 µM.

`CN1/C(=C/c2cc[n+](Cc3ccccc3)c3ccccc23)Sc2ccccc21`: the results for the IC50 in [1] and in [2] were 0.026 µM and 0.19 µM, respectively. Besides, the selectivity ratio in [3] stood at 7.

Consider `Cc1ccc2c(c1)c(/C=C1\Sc3ccccc3N1C)cc[n+]2C`, for which the IC50 in [1] was found to be 0.031 µM; in data set [2] it was 0.2 µM. Besides, the selectivity ratio in data set [3] was found to be 6.5. The ΔTm came out at 5 °C in [5] and 4 °C in [6]. Moreover, the result in data set [7] was Active.

In the case of `COc1ccc2c(c1)c(/C=C1\Sc3ccccc3N1C)cc[n+]2C`, the results for the IC50 in [1] and in [2] were 0.028 µM and 0.2 µM, respectively. The selectivity ratio in [3] came to 7.1.

For `N=C(N)c1ccc(OCCCCCOc2ccc(C(=N)N)cc2)cc1` [PENTAMIDINE], the IC50 in data set [1] stood at 3.1 µM.

As to `CN1/C(=C/c2cc[n+](C)c3cc(Cl)ccc23)Sc2ccccc21`, the IC50 in data set [1] was 0.034 µM; in [2] it was 0.18 µM. Further, the selectivity ratio in [3] turned out to be 5.3.

For `COc1cccc2c1c(/C=C1\Sc3ccccc3N1C)cc[n+]2C`, the IC50 in [1] amounted to 0.025 µM; in data set [2], 0.086 µM. Further, in [3], the selectivity ratio worked out at 3.4.

Consider `CN1/C(=C/c2cc[n+](C)c3cc(-c4ccccc4)ccc23)Sc2ccccc21`, for which the IC50 in data set [1] was 0.013 µM; in data set [2], 0.069 µM. In data set [3], the selectivity ratio came to 5.3.

As to `CC[n+]1ccc(/C=C2\Sc3ccccc3N2C)c2ccccc21`, the half-inhibitory concentration (IC50) in data set [1] amounted to 0.012 µM; in data set [2], 0.17 µM; in data set [4] it was 0.072 µM. For the same compound, in data set [3], the selectivity ratio stood at 14.

In the case of `CN1C=CC(=Cc2sc3ccccc3[n+]2C)C=C1`, the concentration for half-maximal inhibition (IC50) in data set [1] amounted to 0.14 µM; in data set [2] it was 2.8 µM; in data set [4], 0.96 µM. Moreover, the selectivity ratio in [3] is 20. Besides, the ΔTm was 1 °C in [5] and less than 1 °C in data set [6].

As to `CCC[n+]1ccc(/C=C2\Sc3ccccc3N2C)c2ccccc21`, the values for the IC50 in data set [1] and in data set [2] were 0.013 µM and 0.14 µM, respectively. For the same compound, in [3], the selectivity ratio is 11.

As to `CN1/C(=C/c2cc[n+](C)c3cccc(Cl)c23)Sc2ccccc21`, the IC50 in data set [1] worked out at 0.016 µM; in data set [2] it was 0.13 µM. The selectivity ratio in data set [3] amounted to 8.1.

Consider `COc1ccc2c(/C=C3\Sc4ccccc4N3C)cc[n+](C)c2c1`, for which the IC50 in data set [1] is 0.035 µM; in data set [2], 0.14 µM. In addition, in data set [3], the selectivity ratio came to 4.

`CN1/C(=C/c2cc[n+](C)c3ccccc23)Sc2ccccc21.Cc1ccc(S(=O)(=O)[O-])cc1` displayed a concentration for half-maximal inhibition (IC50) in data set [8] of 0.021 µM. Besides, in [9], the selectivity ratio amounted to 25. Further, in data set [10], the Activity stood at 48%.

With `CN1C=CS/C1=C\c1cc[n+](C)c2ccccc12`, the figures for the IC50 in data set [1] and in data set [2] were 0.16 µM and 1.5 µM, respectively. Moreover, the selectivity ratio in data set [3] came to 9.4. Further, the values for the ΔTm in data set [5] and in [6] were 2 °C and 1 °C, respectively.

On to `CN1/C(=C/c2cc[n+](C)c3ccc(-c4ccccc4)cc23)Sc2ccccc21`, for which the IC50 came out at 0.037 µM in [1] and 0.18 µM in [2]. Further, the selectivity ratio in data set [3] came out at 4.9.

Regarding `CN1/C(=C/c2cc[n+](C)c3cccc(-c4ccccc4)c23)Sc2ccccc21`, the IC50 amounted to 0.042 µM in [1] and 0.16 µM in data set [2]. The selectivity ratio in data set [3] was 3.8. The ΔTm in [5] amounted to 3 °C; in data set [6], 2 °C.

For the compound `Cc1ccc2c(/C=C3\Sc4ccccc4N3C)cc[n+](C)c2c1`, the values for the half-inhibitory concentration (IC50) in data set [1] and in [2] were 0.037 µM and 0.12 µM, respectively. Moreover, in data set [3], the selectivity ratio came to 3.2. The ΔTm in data set [5] and in [6] was 4 °C each time.

The values are drawn from ChEMBL document CHEMBL4342431, “Synthesis and antileishmanial evaluation of thiazole orange analogs” (Bioorg Med Chem Lett, 2020).
